Test results: ChEMBL document CHEMBL1139585, “A 3D-QSAR model for CYP2D6 inhibition in the aryloxypropanolamine series” (Bioorg Med Chem Lett, 2005)
pIC50: −log10 of the molar value.

Molecular target: Cytochrome P450 2D6 (Homo sapiens, UniProt P10635)
Assay: Inhibitory activity against recombinant human Cytochrome P450 2D6 (CYP2D6) after incubated for 45 minutes

Cytochrome P450 2D6, sequence (P10635 whole entry): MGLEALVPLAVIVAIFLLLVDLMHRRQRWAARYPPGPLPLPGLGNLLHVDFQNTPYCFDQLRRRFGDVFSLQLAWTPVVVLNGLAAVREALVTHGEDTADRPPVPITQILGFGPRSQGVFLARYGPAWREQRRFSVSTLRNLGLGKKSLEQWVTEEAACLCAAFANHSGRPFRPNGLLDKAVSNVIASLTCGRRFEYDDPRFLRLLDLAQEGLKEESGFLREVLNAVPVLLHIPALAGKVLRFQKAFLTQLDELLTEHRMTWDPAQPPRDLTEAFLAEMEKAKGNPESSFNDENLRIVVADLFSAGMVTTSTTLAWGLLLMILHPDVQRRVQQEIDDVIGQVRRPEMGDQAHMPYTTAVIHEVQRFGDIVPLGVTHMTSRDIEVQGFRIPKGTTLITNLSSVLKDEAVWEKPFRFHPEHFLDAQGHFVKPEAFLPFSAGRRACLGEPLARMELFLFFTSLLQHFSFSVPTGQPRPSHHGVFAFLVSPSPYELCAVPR

Structure (SMILES) | pIC50
CC(C)NC[C@@H](O)COc1ccc(-c2ccccc2)c2ccccc12 | 4.68
C=CCOc1ccc(OCC(O)CNC(C)C)cc1 (stereo unspecified) | 4.68
CC(C)(C)NCC(O)COc1ccccc1 (stereo unspecified) | 4.55
CCc1cccc2cc(CC(O)CNC(C)(C)C)oc12 (stereo unspecified) | 5.32
COc1ccc2c(OCC(O)CNC(C)C)cccc2c1 (stereo unspecified) | 5.08
CC(C)NCC(O)COc1ccccc1 (stereo unspecified) | 4.74
CC(C)NCC(O)COc1ccc(CCOCC2CC2)cc1 (stereo unspecified) [BETAXOLOL] | 4.18

The next compounds have a higher pIC50 than those just listed; values first:

pIC50 | Structure (SMILES)
7.30 | CC(C)(Cc1c[nH]c2ccccc12)NCC(O)COc1c(C#N)ccc2ccccc12 (stereo unspecified)
5.42 | CC(C)N[C@@H](C)C(O)COc1cccc2ccccc12 (stereo partly specified)
6.55 | COCCc1ccc(OCC(O)CNC(C)(C)CSc2ccccc2C)cc1 (stereo unspecified)
6.38 | COc1ccc2c(CC(C)(C)NCC(O)COc3ccccc3C#N)c[nH]c2c1 (stereo unspecified)
6.92 | CCc1ccccc1OCC(O)CNC(C)(C)Cc1cc2ccccc2[nH]1 (stereo unspecified)
7.30 | COc1ccc2[nH]cc(CC(C)(C)NCC(O)COc3ccccc3C#N)c2c1 (stereo unspecified)
7.05 | Cc1ccccc1OCC(O)CNC(C)(C)Cc1cc2ccccc2n1C (stereo unspecified)
7.30 | CC(C)(Cc1csc2ccccc12)NCC(O)COc1ccccc1C#N (stereo unspecified)
7.10 | CC(C)(Cc1c[nH]c2ccc(O)cc12)NCC(O)COc1ccccc1C#N (stereo unspecified)
